The results in this text go back to patent US6495699B2, “Metalloproteinase inhibitors, pharmaceutical compositions containing them, and their use” (Agouron Pharmaceuticals Inc., priority 1996, dated 2002).

In series [1] the target is T1, fibroblast collagenase-1 catalytic domain (HFC) (Homo sapiens, UniProt P03956).
T1 construct: The catalytic domain of human collagenase-1 was expressed as a fusion protein with ubiquitin in E. coli; ubiquitin (cleaved yes); made in house; host or cells: E. coli
T1 sequence (P03956 100-269 limits assumed): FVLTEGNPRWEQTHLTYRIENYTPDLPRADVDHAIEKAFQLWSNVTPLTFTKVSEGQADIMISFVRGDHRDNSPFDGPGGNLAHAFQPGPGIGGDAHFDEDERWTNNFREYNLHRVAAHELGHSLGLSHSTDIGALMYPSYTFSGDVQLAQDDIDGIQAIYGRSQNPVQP
Nature of the series: Fluorometric MCA-peptide hydrolysis assay, fibroblast collagenase-1 (HFC). The format is biochemical. As to conditions: apparent Ki; 10 μM MCA peptide substrate, 37° C., pH 7.5; read-out: HFC (Ki,app). How it is done: The catalytic domain of human collagenase-1 was expressed as a fusion protein with ubiquitin in E. coli (see Gehring, E. R., J Biol. Chem., 1995, 270, 22507). After purification of the fusion protein, the fibroblast collagenase-1 catalytic domain (HFC) was released either by treatment with purified, active stromelysin-1 (1:50 w/w ratio), which generated nearly 100% N-terminal Phe1, or by autoprocessing the concentrated collagenase-1 fusion and then incubating at 37° C. for 1 hour. Final purification was completed using zinc chelate chromatography.
Assays were performed in assay buffer (50 mM Tricine pH 7.5, 200 mM sodium chloride, 10 mM calcium chloride, 0.5 mM zinc acetate containing 2% dimethyl sulfoxide (DMSO)) once the substrate and inhibitor were diluted into it. Stock solutions of inhibitors were prepared in 100% DMSO. Stock solutions of the substrate were prepared in 100% DMSO at a concentration of 6 mM.
The assay method was based on the hydrolysis of MCA-Pro-Leu-Gly-Leu-DPA-Ala-Arg-NH2 (American Peptide Co.) at 37° C. (see Knight, C. G. et al., FEBS, 1992, 296, 263-266). The fluorescence changes were monitored with a Perkin-Elmer LS-50B fluorimeter using an excitation wavelength of 328 nm and an emission wavelength of 393 nm. The substrate concentration used in the assays was 10 μM. The inhibitor was diluted into the assays from a solution in 100% DMSO, and controls substituted an equal volume of DMSO so that the final DMSO concentration from inhibitor and substrate dilution in all assays was 2%. […] Proper determination of steady-state rates of substrate cleavage required assay lengths of 60 minutes to allow for complete equilibration of the enzyme-inhibitor complex.
The Km for the MCA peptide substrate with the matrix metalloproteinases is quite high and exceeds its solubility under assay conditions. Consequently, the apparent Ki (Ki,app) was determined to describe the strength of inhibition. However, in this case, Ki,app would be essentially equal to Ki since [S]<<Km. For the determination of Ki,app, the concentration of the inhibitor was varied at a constant and low concentration of substrate and the steady-state rates of fluorescence change determined. In most cases absorptive quench due to the presence of ligand was not observed. For slow-binding inhibitors, onset of inhibition curves were collected for at least 45 minutes so that equilibrium was established. Steady-state rates of fluorescence change were obtained by fitting a curve to an equation for a single exponential decay containing a linear phase. The fitted value of the linear phase was taken as the steady-state rate. The steady-state rates were fitted to the Michaelis equation describing competitive inhibition by non-linear methods. Data resulting from tight-binding inhibition was analyzed, and Ki,app determined by fitting the data to the tight-binding equation of Morrison (Biochem. Biophys. Acta, vol. 185, pp. 269-286 (1969)) by non-linear methods.

The nature of series [2]: Determination of inhibitor concentration in plasma after oral dosing. It counts as in vivo, Sprague Dawley rats. As to conditions: Sprague-Dawley, rat plasma. The procedure: The dosing solution consisted of the inhibitor dissolved in either a molar equivalent of HCl in water (vehicle A), in 60% aq. propylene glycol (vehicle B), or in 2.8 mg/mL sodium bicarbonate in 60% aqueous propylene glycol (vehicle C), yielding a final concentration that ranged from 10-15 mg/ml. Sprague Dawley rats (Hilltop Lab Animals, Scottsdale, Pa.) were dosed as a function of drug weight per body weight, usually 50 mgper kg. Blood was taken from the rats and centrifuged, and the plasma was stored in the freezer. Drug was extracted from a 50 μl plasma aliquot by adding 1 ml of acetonitrile, shaking for 2 minutes, centrifuging for 15 minutes at 4000 rpm, collecting the supernatant, and then evaporating it to dryness under a stream of nitrogen. The samples were reconstituted with 130 μl of mobile phase, shook for 2 minutes, and centrifuged for 15 minutes at 4000 rpm. The supernatant was collected and the samples were analyzed by injecting 100 μl of supernatant onto HPLC.
Quantitation of drug levels was accomplished by generating a standard curve of known drug amounts that were extracted from added plasma. Drug levels were plotted as a function of time and analyzed to provide area under the curve (AUC) and maximum concentration (Cmax) values.

Series [3] has as its target T2, human collagenase-3 (Coll3) (Homo sapiens, UniProt P45452).
T2 construct: the catalytic domain was liberated by treatment with 2 mM APMA at room temperature overnight; ubiquitin (N, cleaved yes); made in house; host or cells: E. coli
Nature of the series: Fluorometric MCA-peptide hydrolysis assay, collagenase-3 (Coll3). The format is biochemical. As to conditions: apparent Ki; 10 μM MCA peptide substrate, 37° C., pH 7.5; read-out: Coll3 (Ki,app).

Series [4] concerns the target T3, human progelatinase A (GelA), catalytic and fibronectin-like portion (Homo sapiens, UniProt P08253).
T3 construct: The catalytic and fibronectin-like portion of human progelatinase A (GelA) was expressed as a fusion protein with ubiquitin; ubiquitin; made in house; host or cells: E. coli
Nature of the series: Fluorometric MCA-peptide hydrolysis assay, gelatinase A (GelA). It counts as biochemical. As to conditions: apparent Ki; 10 μM MCA peptide substrate, 37° C., pH 7.5. In outline: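 E. coli-expressed ubiquitin fusion of human proGelA catalytic plus fibronectin-like domains, autoactivated; 10 μM MCA-Pro-Leu-Gly-Leu-DPA-Ala-Arg-NH2, pH 7.5 Tricine/NaCl/CaCl2/Zn buffer, 2% DMSO, 37° C, 60 min. Fluorescence 328/393 nm; steady-state rates fitted to competitive inhibition or Morrison tight-binding equation giving Ki,app (≈Ki since [S]<<Km).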

Series [5] deals with T4, catalytic domain of human stromelysin (Hsln) (Homo sapiens, UniProt P08254).
T4 construct: The catalytic domain of human stromelysin (Hsln) was obtained by expression and purification of a C-terminally truncated prostromelysin-1; made in house; host or cells: E. coli BL21
T4 sequence (P08254 100-272 limits assumed): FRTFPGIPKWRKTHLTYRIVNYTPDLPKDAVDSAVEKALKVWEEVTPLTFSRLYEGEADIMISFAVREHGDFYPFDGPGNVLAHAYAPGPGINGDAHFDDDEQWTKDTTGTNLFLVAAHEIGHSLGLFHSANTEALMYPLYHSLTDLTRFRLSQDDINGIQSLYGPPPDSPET
In words: Fluorometric MCA-peptide hydrolysis assay, stromelysin (Hsln). The format is biochemical. As to conditions: apparent Ki; 10 μM MCA peptide substrate, 37° C., pH 7.5; read-out: Hsln (Ki,app). In short, it runs like this:
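APMA-activated E. coli–expressed catalytic domain, with 10 μM MCA-Pro-Leu-Gly-Leu-DPA-Ala-Arg-NH2 at 37 °C. Buffer was pH 7.5 Tricine with NaCl, CaCl2, zinc acetate and 2% final DMSO; fluorescence read at ex 328/em 393 nm over 60 min. Ki,app from steady-state rates fitted to competitive or Morrison tight-binding equations.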

For the next series, the target named is T5, Human matrilysin (Matr) (Homo sapiens, UniProt P09237).
T5 construct: the catalytic domain was liberated by treatment with 2 mM APMA at 37° C. for 2 hours; ubiquitin (cleaved yes); made in house; host or cells: E. coli
T5 sequence (P09237 95-267): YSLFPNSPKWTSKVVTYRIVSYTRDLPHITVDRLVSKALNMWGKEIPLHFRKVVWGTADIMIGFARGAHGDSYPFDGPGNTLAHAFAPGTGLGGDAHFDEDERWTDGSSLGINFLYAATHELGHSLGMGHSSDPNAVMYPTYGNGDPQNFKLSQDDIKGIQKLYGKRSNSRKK
Nature of the series: Fluorometric MCA-peptide hydrolysis assay, matrilysin (Matr). As to conditions: apparent Ki; 10 μM MCA peptide substrate, 37° C., pH 7.5; read-out: Matr (Ki,app). It counts as biochemical. In short, it runs like this: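 Catalytic domain of E. coli-expressed human matrilysin assayed at 37° C, pH 7.5 Tricine buffer, 2% DMSO, with 10 μM MCA-Pro-Leu-Gly-Leu-DPA-Ala-Arg-NH2; fluorescence ex 328/em 393 nm over 60 min. Ki,app from steady-state rates fitted to competitive inhibition or Morrison tight-binding equation.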

The next series is described as follows: LogP. The format is physicochemical.
Setting [6] is: dose 50 mg/kg, vehicle B (60% aq. propylene glycol).
Setting [7] is: dose 50 mg/kg, vehicle B, dosed as the benzyl ester prodrug.
[8] abbreviates: dose 25 mg/kg, vehicle A (molar equivalent of HCl in water).
Where [9] appears, read: dose 50 mg/kg, vehicle A, dosed as the benzyl ester prodrug.

T3 sequence (P08253 110-465 limits assumed): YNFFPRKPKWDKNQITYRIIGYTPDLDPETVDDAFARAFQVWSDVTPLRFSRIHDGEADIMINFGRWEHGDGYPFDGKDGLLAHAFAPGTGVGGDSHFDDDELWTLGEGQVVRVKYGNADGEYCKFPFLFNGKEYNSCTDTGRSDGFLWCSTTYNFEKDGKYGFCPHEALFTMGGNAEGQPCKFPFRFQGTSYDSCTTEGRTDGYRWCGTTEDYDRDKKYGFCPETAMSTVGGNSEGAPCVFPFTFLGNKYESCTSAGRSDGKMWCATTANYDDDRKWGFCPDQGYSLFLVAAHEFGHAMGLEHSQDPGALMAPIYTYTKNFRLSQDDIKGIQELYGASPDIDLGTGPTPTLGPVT

As usually defined, the AUC is the area under the concentration-time curve, a measure of exposure. The term Cmax denotes the peak of the concentration-time curve. With `CC(C)(C)[C@H](NC(=O)[C@@H](CC(=O)O)n1ccc(-c2ccc(-c3ccncc3)cc2)c1)C(=O)Nc1ccncc1` [Example 7(b), N-[2,2-Dimethyl-1(S)-(pyridin-4-ylcarbamoyl)propyl]-3(R)-[3-[4-(pyridin-4-yl)phenyl]-1H-pyrrol-1-yl]succinamic Acid], the Ki came to 453 nM in series [1], 0.01 nM in series [3], 0.29 nM in series [5] and 5 nM on Human matrilysin (Matr). The molecule also had an AUC in series [2] (setting [6]) of 400 ng·h/mL. This molecule showed a Cmax in series [2] (setting [6]) of 210 ng/mL. Also, in series [4], the GelA (Ki,app) was 0.007 nM.
In series [2] (setting [6]), `CNC(=O)[C@@H](NC(=O)[C@@H](CC(=O)O)c1ccn(-c2ccc(F)cc2)c1)C(C)(C)C` [Example 14(a), N-[2,2-Dimethyl-1(S)-(methylcarbamoyl)propyl]-3(S)-[1-(4-fluorophenyl)-1H-pyrrol-3-yl]succinamic Acid] had an AUC of 1570 ng·h/mL and a Cmax of 820 ng/mL. The Ki in series [3] amounted to 7.2 nM. Moreover, the GelA (Ki,app) in series [4] amounted to 4.3 nM. Further, in series [5], the Ki came to 558 nM.
As to `CNC(=O)[C@@H](NC(=O)[C@@H](CC(=O)O)n1ccc(-c2ccc(-c3ccncc3)cc2)c1)C(C)(C)C` [Example 6(b), N-(2,2-Dimethyl-1(S)-(methylcarbamoyl)propyl)-3(R)-[3-(4-(pyridin-4-yl)phenyl)-1H-pyrrol-1-yl]succinamic Acid], the Ki in series [1] came out at 2900 nM; in series [3] it was 0.21 nM; in series [5], 3.6 nM. For the same molecule, in series [2] (setting [7]), the area under the curve (AUC) is 617 ng·h/mL. Besides, the Cmax in series [2] (setting [7]) worked out at 300 ng/mL. The GelA (Ki,app) in series [4] is 0.066 nM.
On to `CC1(C)COC(=O)[C@H]1NC(=O)[C@@H](CC(=O)O)n1ccc(-c2ccc(-c3ccncc3)cc2)c1` [Example 6(c), N-(4,4-Dimethyl-2-oxo-tetrahydrofuran-3(S)-yl)-3(R)-[3-[4-(pyridin-4-yl)phenyl]-1H-pyrrol-1-yl]succinamic Acid], for which the figures for the AUC in series [2] (setting [8]) and in series [2] (setting [9]) were 933 ng·h/mL and 4420 ng·h/mL, respectively. Further, the Cmax worked out at 450 ng/mL in series [2] (setting [8]) and 1140 ng/mL in series [2] (setting [9]). In addition, the Ki in series [3] was found to be 7.6 nM; in series [5] it was 54 nM; at Human matrilysin (Matr), 5000 nM. Further, in series [4], the GelA (Ki,app) worked out at 0.806 nM.
The term melting point denotes the temperature of the solid-liquid transition. Take `CNC(=O)[C@@H](NC(=O)[C@@H](CC(=O)O)n1ccc(-c2ccc(C#N)cc2)c1)C(C)(C)C` [Example 1(m), 3 (R)-[3-(4-Cyanophenyl)-1H-pyrrol-1-yl]-N-[2,2-dimethyl-1(S)-(methylcarbamoyl)propyl]succinamic Acid]: the melting point lay in the range of 138 to 140 °C. For the same molecule, the Ki in series [1] amounted to 997 nM. In series [2] (setting [6]), this molecule gave an AUC of 967 ng·h/mL and a Cmax of 590 ng/mL. The Ki in series [3] stood at 1 nM. The GelA (Ki,app) in series [4] came out at 0.41 nM. Besides, the Ki in series [5] worked out at 50 nM.
As usually defined, the logP is the decadic logarithm of the partition coefficient of the neutral form, usually between octanol and water. Lower therefore signals a more hydrophilic compound. `CNC(=O)[C@@H](NC(=O)[C@@H](CC(=O)O)n1ccc(-c2ccccc2)c1)C(C)(C)C` [1(b), N-[2,2-Dimethyl-1(S)-(methylcarbamoyl)propyl]-3(R)-(3-phenyl-1H-pyrrol-1-yl)succinamic acid] showed a lipophilicity (logP) in the series “LogP” of -0.83. Also, the results for the Ki in series [3] and in series [5] were 18.3 nM and 2000 nM, respectively. In series [4], the GelA (Ki,app) amounted to 5.91 nM.
`CNC(=O)[C@@H](NC(=O)[C@@H](CC(=O)O)n1ccc(-c2ccc(-c3ccccc3)cc2)c1)C(C)(C)C` [Example 1(e), 3(R)-[3-(Biphenyl-4-yl)-1H-pyrrol-1-yl]-N-[2,2-dimethyl-1(S)-(methylcarbamoyl)propyl]succinamic Acid] had a logP in the series “LogP” of 1.19. The Ki is 0.9 nM in series [3], 3.1 nM in series [5] and 500 nM on Human matrilysin (Matr). Besides, the GelA (Ki,app) in series [4] was 0.108 nM.
`O=C(O)C[C@H](C(=O)N[C@H]1Cc2cn(c3ccccc23)CCOCCNC1=O)n1ccc(-c2ccccc2)c1` [Example 1(c), N-(8-Oxo-4-oxa-1,7-diazatricyclo[9.6.1.0^12,17]octadeca-11(18), 12,14,16-tetraen-9(S)-yl)-3(R)-(3-phenyl-1H-pyrrol-1-yl)succinamic Acid] registered a logP in “LogP” of -0.97. Moreover, the figures for the Ki (in series [3]; in series [5]; at Human matrilysin (Matr)) were 0.868 nM, 486 nM and 16900 nM, respectively. The GelA (Ki,app) in series [4] amounted to 2 nM.
